From publication PMC4032624 (Molecular cell, 2013)

Columns and labels:
G9a/GLC = test: H3K9me2 level in U2OS cells; assay type: cell-based; conditions: incubation with inhibitor vs solvent DMSO
pT2609 and γH2Ax foci = test: Confocal immunofluorescence of pT2609-DNA-PKcs and γH2Ax foci in U2OS cells; conditions: UNC0638 together with ETO, Pearson correlation coefficient, n=5
γH2Ax = γH2Ax level by Western blot in U2OS cells; assay type: cell-based; conditions: UNC0638 with etoposide

## COc1cc2c(NC3CCN(C(C)C)CC3)nc(C3CCCCC3)nc2cc1OCCCN1CCCC1 [UNC0638]
G9a/GLC
  H3K9me2 level: decreased
pT2609 and γH2Ax foci
  colocalization pattern of γH2Ax and pT2609 foci: did not significantly alter
γH2Ax
  effect on etoposide-induced γH2Ax pattern: not affected
